Data on four compounds can be found in patent publication US9012635B2, “Pyridone amides and analogs exhibiting anti-cancer and anti-proliferative activities” (Deciphera Pharmaceuticals, LLC, priority 2013, dated 2015).

The target of test [1] is T1, c-MET kinase (Seq. ID No. 2) (Homo sapiens, UniProt P08581).
T1 construct: c-MET (c-MET residues: 956-1390, from Invitrogen, catalogue #PV3143, 6 nM); purchased Invitrogen PV3143
Put plainly: c-MET kinase assay (pyruvate kinase/lactate dehydrogenase coupled, A340). Format: biochemical. The settings on record: enzymatic assay, 0.5 h pre-incubation, ATP 100 μM; read-out: cMET. The procedure: Activity of c-MET kinase (Seq. ID No. 2) was determined by following the production of ADP from the kinase reaction through coupling with the pyruvate kinase/lactate dehydrogenase system (e.g., Schindler et al. Science 2000, 289, pp. 1938-1942). In this assay, the oxidation of NADH (thus the decrease at A340 nm) was continuously monitored spectrophotometrically. The reaction mixture (100 μl) contained c-MET (c-MET residues: 956-1390, from Invitrogen, catalogue #PV3143, 6 nM), polyE4Y (1 mg/mL), MgCl2 (10 mM), pyruvate kinase (4 units), lactate dehydrogenase (0.7 units), phosphoenol pyruvate (1 mM), and NADH (0.28 mM) in 90 mM Tris buffer containing 0.25 mM DTT, 0.2% octyl-glucoside and 1% DMSO, pH 7.5. Test compounds were incubated with c-MET (Seq. ID No. 2) and other reaction reagents at 22° C. for 0.5 h before ATP (100 μM) was added to start the reaction. The absorption at 340 nm was monitored continuously for 2 hours at 30° C. on Polarstar Optima plate reader (BMG). The reaction rate was calculated using the 1.0 to 2.0 h time frame. Percent inhibition was obtained by comparison of reaction rate with that of a control (i.e., with no test compound). IC50 values were calculated from a series of percent inhibition values determined at a range of inhibitor concentrations using software routines as implemented in the GraphPad Prism software package.

The target in test [2] is T2, c-KIT kinase (Seq. ID No. 1) (Homo sapiens, UniProt P10721).
T2 construct: c-KIT (cKIT residues T544-V976, from ProQinase, 5.4 nM); purchased ProQinase
Put plainly: c-KIT kinase assay (pyruvate kinase/lactate dehydrogenase coupled, A340). The class given is biochemical. The settings on record: enzymatic assay, ATP 200 μM; read-out: cKIT. The procedure:
Activity of c-KIT kinase (Seq. ID No. 1) was determined by following the production of ADP from the kinase reaction through coupling with the pyruvate kinase/lactate dehydrogenase system (e.g., Schindler et al. Science 2000, 289, pp. 1938-1942). In this assay, the oxidation of NADH (thus the decrease at A340 nm) was continuously monitored spectrophotometrically. The reaction mixture (100 μl) contained c-KIT (cKIT residues T544-V976, from ProQinase, 5.4 nM), polyE4Y (1 mg/mL), MgCl2 (10 mM), pyruvate kinase (4 units), lactate dehydrogenase (0.7 units), phosphoenol pyruvate (1 mM), and NADH (0.28 mM) in 90 mM Tris buffer containing 0.2% octyl-glucoside and 1% DMSO, pH 7.5. Test compounds were incubated with c-KIT (Seq. ID No. 1) and other reaction reagents at 22° C. for less than 2 min before ATP (200 μM) was added to start the reaction. The absorption at 340 nm was monitored continuously for 0.5 hours at 30° C. on Polarstar Optima plate reader (BMG). The reaction rate was calculated using the 0 to 0.5 h time frame. Percent inhibition was obtained by comparison of reaction rate with that of a control (i.e., with no test compound). IC50 values were calculated from a series of percent inhibition values determined at a range of inhibitor concentrations using software routines as implemented in the GraphPad Prism software package.

The next test has as its system EBC-1 cells. Put plainly: EBC-1 cell proliferation assay (resazurin). The class given is cell-based. To be noted: Homo sapiens, 67 h + 5 h resazurin, read-out: EBC1 Proliferation. The procedure:
EBC-1 cells (catalog #JCRB0820) were obtained from the Japan Health Science Research Resources Bank, Osaka, Japan. Briefly, cells were grown in DMEM supplemented with 10% characterized fetal bovine serum (Invitrogen, Carlsbad, Calif.) at 37° C., 5% CO2, 95% humidity. Cells were allowed to expand until reaching 70-95% confluency at which point they were subcultured or harvested for assay use.
A serial dilution of test compound was dispensed into a 96-well black clear bottom plate (Corning, Corning, N.Y.). For each cell line, five thousand cells were added per well in 200 μL complete growth medium. Plates were incubated for 67 hours at 37° C., 5% CO2, 95% humidity. At the end of the incubation period 40 μL of a 440 μM solution of resazurin (Sigma, St. Louis, Mo.) in PBS was added to each well and incubated for an additional 5 hours at 37° C., 5% CO2, 95% humidity. Plates were read on a Synergy2 reader (Biotek, Winooski, Vt.) using an excitation of 540 nm and an emission of 600 nm. Data was analyzed using Prism software (GraphPad, San Diego, Calif.) to calculate IC50 values.

Where a name gives a salt, the structure may show the parent alone.

T2 sequence (P10721 with tags, fused parts or gaps): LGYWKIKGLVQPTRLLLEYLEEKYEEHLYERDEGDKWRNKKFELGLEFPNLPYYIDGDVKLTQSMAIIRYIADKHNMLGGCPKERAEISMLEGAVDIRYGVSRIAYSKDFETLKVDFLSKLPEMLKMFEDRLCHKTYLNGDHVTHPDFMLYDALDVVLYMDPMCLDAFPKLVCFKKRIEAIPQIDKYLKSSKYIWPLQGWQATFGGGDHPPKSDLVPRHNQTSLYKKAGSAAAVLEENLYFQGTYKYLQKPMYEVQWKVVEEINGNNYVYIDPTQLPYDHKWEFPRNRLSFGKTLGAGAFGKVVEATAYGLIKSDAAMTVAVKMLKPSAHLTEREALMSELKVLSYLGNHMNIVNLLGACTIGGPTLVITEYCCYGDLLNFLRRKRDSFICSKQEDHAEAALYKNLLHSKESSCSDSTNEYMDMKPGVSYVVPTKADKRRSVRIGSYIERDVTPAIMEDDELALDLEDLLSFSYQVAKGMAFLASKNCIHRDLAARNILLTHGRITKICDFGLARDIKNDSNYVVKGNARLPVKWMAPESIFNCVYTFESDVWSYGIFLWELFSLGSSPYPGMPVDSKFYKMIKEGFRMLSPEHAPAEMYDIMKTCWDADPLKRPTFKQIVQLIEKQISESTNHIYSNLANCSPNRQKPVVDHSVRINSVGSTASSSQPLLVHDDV
T1 sequence (P08581 with tags, fused parts or gaps): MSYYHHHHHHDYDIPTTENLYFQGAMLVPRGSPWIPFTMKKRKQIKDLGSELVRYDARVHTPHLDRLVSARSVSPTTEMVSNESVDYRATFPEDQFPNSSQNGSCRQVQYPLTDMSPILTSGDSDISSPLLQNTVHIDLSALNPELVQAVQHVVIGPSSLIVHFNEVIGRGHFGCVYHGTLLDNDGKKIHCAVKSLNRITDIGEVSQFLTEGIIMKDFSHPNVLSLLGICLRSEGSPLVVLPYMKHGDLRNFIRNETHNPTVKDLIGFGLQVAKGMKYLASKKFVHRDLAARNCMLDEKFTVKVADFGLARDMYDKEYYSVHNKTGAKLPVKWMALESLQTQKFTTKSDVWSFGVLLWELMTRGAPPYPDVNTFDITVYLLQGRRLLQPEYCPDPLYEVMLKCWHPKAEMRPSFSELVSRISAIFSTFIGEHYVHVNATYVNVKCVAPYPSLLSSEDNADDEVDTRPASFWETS

For `Cn1cc(-c2cc(Oc3cc(F)c(NC(=O)c4cccn(-c5ccc(F)cc5)c4=O)cc3F)ccn2)cn1` [Example 1, N-(2,5-difluoro-4-((2-(1-methyl-1H-pyrazol-4-yl)pyridin-4-yl)oxy)phenyl)-1-(4-fluorophenyl)-2-oxo-1,2-dihydropyridine-3-carboxamide], the IC50 (in test [1]; in test [2]; in the test with EBC-1 cells) was at most 0.1 µM each time.
Turning to `CCOc1ccn(-c2ccc(F)cc2)c(=O)c1C(=O)Nc1cc(F)c(Oc2ccnc(-c3cnn(C)c3)c2)cc1F` [Example 2, N-(2,5-difluoro-4-(2-(1-methyl-1H-pyrazol-4-yl)pyridin-4-yloxy)phenyl)-4-ethoxy-1-(4-fluorophenyl)-2-oxo-1,2-dihydropyridine-3-carboxamide], the IC50 in test [1] was at most 0.1 µM; in test [2], over 1 µM; in the test on EBC-1 cells it was at most 0.1 µM.
With `O=C(Nc1cc(F)c(Oc2ccnc(-c3cnn(CCO)c3)c2)cc1F)c1cccn(-c2ccc(F)cc2)c1=O` [Example 3, N-(2,5-difluoro-4-((2-(1-(2-hydroxyethyl)-1H-pyrazol-4-yl)pyridin-4-yl)oxy)phenyl)-1-(4-fluorophenyl)-2-oxo-1,2-dihydropyridine-3-carboxamide hydrochloride], the IC50 in test [1] was at most 0.1 µM; in test [2] it was over 1 µM.
As for `CCNc1ccn(-c2ccc(F)cc2)c(=O)c1C(=O)Nc1cc(F)c(Oc2ccnc(-c3cnn(C)c3)c2)cc1F` [Example 5, N-(2,5-difluoro-4-((2-(1-methyl-1H-pyrazol-4-yl)pyridin-4-yl)oxy)phenyl)-4-(ethylamino)-1-(4-fluorophenyl)-2-oxo-1,2-dihydropyridine-3-carboxamide], the figures for the IC50 (in test [1]; in test [2]; in the test on EBC-1 cells) were at most 0.1 µM, over 1 µM and 0.1 to 1 µM, respectively.
